According to US12214039B2, “Systems and methods for treatments of an eye with a photosensitizer” (Avedro, Inc., priority 2015, dated 2025):
“Also recorded” adds a separate entry of the source.

Legend:
[1] = single surfactant; cited from earlier work
[2] = test system: pig eyes with intact epithelium; assay: Relative fluorescence (F/Fo) of cross-linked corneal flaps, surfactants in riboflavin solution (Study 4)
Procedure: Pig eyes shipped overnight on ice from an abattoir (SiouxPreme, Sioux City, IA) were rinsed in saline. The eyes with intact epithelium were soaked with one of the test solutions below for 20 minutes in an incubator set at 37° C. by using a rubber ring to hold the solution on top.
For a Group A of the pig eyes, the following riboflavin formulations were used: • (a1) 0.25% riboflavin solution containing BAC (PARACEL™, Avedro, Inc., Waltham, MA); • (a2) 0.1% w.v. riboflavin solution containing saline (PHOTREXA ZD™ Avedro, Inc., Waltham, MA) with added riboflavin to match the riboflavin content (0.25%) in solution (a1); • (a3) solution (a2) with 1% Polidocanol; • (a4) solution (a2) with 5% Polidocanol; and • (a5) solution (a2) with 10% Polidocanol.
The epitheliums of eyes in Group A were removed with a dull blade after the eyes were soaked in one of the solutions and irradiated pan-corneally on air with a top hat beam (3% root mean square) for 4 minutes with 365-nm light source (UV LED NCSU033B[T]; Nichia Co., Tokushima, Japan) at a chosen irradiance of 30 mW/cm^2 which was measured with a power sensor (model PD-300-UV; Ophir, Inc., Jerusalem, Israel) at the corneal surface. Corneal flaps (approximately 200 μm thick) were excised from the eyes with aid of an Intralase femtosecond laser (Abbot Medical Optics, Santa Ana, CA). The average thickness of the corneal flaps was calculated as a difference between the measurements before and after the excision from the eyes with an ultrasonic Pachymeter (DGH Technology, Exton, PA). The flaps were washed with distilled water and dried in a vacuum until the weight change became less than 10% (Rotary vane vacuum pump RV3 A652-01-903, BOC Edwards, West Sussex, UK). […] Papain digests were diluted 0.5 times with 1×BBBS and fluorescence of the solutions was measured with excitation of 360 nm in a QM-40 Spectrofluorometer (Photon Technology Int., London, Ontario, Canada). The fluorescence of the papain buffer was taken into account by measuring fluorescence in the absence of tissue and subtracting this value from the fluorescence of the samples. […]

[3] = in riboflavin solution, pig eyes

Compound: CCCCCCCCCc1ccc(OCCOCCOCCOCCOCCOCCOCCOCCOCCO)cc1 [IGEPAL CO-630]
- HLB number [1]: 13

Compound: Polyoxyethylene (9) lauryl ether [Polidocanol]
- corrosion and damage to the epithelium ([2]; corneal epithelium): do not cause damage to the epithelium; also recorded: less corrosive and damaging to the epithelium than BAC
- enhancing permeability and generating cross-linking activity, compared with other surfactants [2, 3]: more effective than many other surfactants
- enhancing permeability in the epithelium and generating cross-linking activity, compared with BAC [2, 3]: far more effective and efficient than BAC
